Results published in patent publication US8426420B2, “Heterocyclic pyrazole-carboxamidesas P2Y12 antagonists” (Sanofi, priority 2007, dated 2013).
pIC50: −log10 of the molar value.

tested on: human platelet rich plasma; assay: Inhibition of human platelet aggregation, 96-well assay; type: cell-based; conditions: Homo sapiens, Platelet, 20 min
Procedure: Inhibition of Human Platelet Aggregation
Alternatively to a binding assay which measures a compound's ability to bind to the P2Y12 receptor, the effect on cellular function was also determined. This ability of the compound was evaluated in two platelet aggregation assays: in 96-well plates and with the “Born”-method using single cuvettes.
Whole blood was collected from healthy volunteers using 20 ml syringes containing 2 ml of ACD-A Aqua-Citrat-Dextrose-A, Fresenius). The anticoagulated whole blood was transferred into 15 ml polypropylene conical tubes (10 ml per tube). The tubes were centrifuged for 15 minutes at 150×g at RT without using the centrifuge brake. This procedure leads to a pellet of cellular components and a supernatant of platelet rich plasma (PRP). The PRP layer was collected from each tube and pooled for each donor. To avoid carry over of cellular components following centrifugation, approximately 5 ml of PRP was left in the tube. The platelet concentration was determined using a Coulter Counter.
The 15 ml tubes containing the pellet of cellular components were centrifuged again for 10 minutes at 1940×g. This pelleted out most particulate blood constituents remaining, leaving a layer of Platelet Poor Plasma (PPP). The PPP was collected for each donor. The PRP layer, previously set aside, was diluted with PPP to a final concentration of approximately 3×E8 platelets/ml with the PPP.
The human platelet aggregation assay is performed in 96-well plates using a microtiter plate reader (SpectraMax Plus 384 with SoftMax Pro software from Molecular Devices). In the plate 15 μl of test compound at 10× final concentration in NaCl is mixed with 120 μl fresh PRP and incubated for 5 minutes. Following that incubation period, 15 μl of 40 μM ADP is added to the reaction mix. This addition of ADP is sufficient to induce aggregation in the absence of an inhibitor. The plates are then transferred to the microplate reader and aggregation is measured over 20 minutes. The instrument settings include:
Absorbance at 650 nm, run time 20 minutes with readings in 1-minute intervals and 50 seconds shaking between readings all performed at 37° C.

pIC50 | Structure (SMILES)
6.31 | O=C(NCC(=O)N1CCN(C(=O)OCc2ccccc2)CC1)c1cc(OCC(=O)N2CCC[C@H]2C(=O)NC2CCC2)n(-c2ccccc2)n1 [Example 275, 4-[2-({5-[2-((S)-2-Cyclobutylcarbamoyl-pyrrolidin-1-yl)-2-oxo-ethoxy]-1-phenyl-1H-pyrazole-3-carbonyl}-amino)-acetyl]-piperazine-1-carboxylic acid benzyl ester]

biological target: human P2Y12 receptor (Homo sapiens, UniProt Q9H244); assay: Human P2Y12 recombinant cell membrane binding assay with 33P 2MeS-ADP; conditions: competition against 33P 2MeS-ADP, membranes of CHO cells with recombinant human P2Y12 receptor
Sequence (Q9H244 whole entry): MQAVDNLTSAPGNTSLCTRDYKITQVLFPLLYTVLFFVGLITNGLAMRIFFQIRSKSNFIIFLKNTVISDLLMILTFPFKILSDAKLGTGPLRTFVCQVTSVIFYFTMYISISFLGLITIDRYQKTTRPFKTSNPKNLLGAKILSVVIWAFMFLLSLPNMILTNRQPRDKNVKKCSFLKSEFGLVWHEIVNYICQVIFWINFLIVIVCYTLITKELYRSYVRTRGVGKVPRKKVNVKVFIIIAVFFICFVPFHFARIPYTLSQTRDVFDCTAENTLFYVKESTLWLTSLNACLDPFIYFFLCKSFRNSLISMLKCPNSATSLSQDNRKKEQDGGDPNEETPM
Procedure: The ability of the compounds of the formula Ito inhibit the P2Y12 receptor can be assessed by determining the concentration of the compound of the formula I that binds to the human P2Y12 Recombinant Cell Membrane Binding Assay with 33P 2MeS-ADP.
Human P2Y12 Recombinant Cell Membrane Binding Assay
The ability of a test compound to bind to the P2Y12 receptor was evaluated in a recombinant cell membrane binding assay. In this competitive binding assay, the test compound competed against a radiolabeled agonist for binding to the P2Y12 receptor, expressed on the cell membrane. Inhibition of binding of the labeled material was measured and correlated to the amount and potency of the test compound. This binding assay is a modification of the procedure described by Takasaki, J. et. al, Mol. Pharmacol., 2001, Vol. 60, pg. 432. A membrane preparation was prepared from Chinese Hamster Ovary (CHO) cells with recombinant expression of the human P2Y12 receptor according to standard procedures as a source of P2Y12.
To a 96-well microtiterplate the following were added: a) 24 μl of assay buffer (10 mM HEPES, 138 mM NaCl, […] KCl, 12 mM NaHCO3, 1 mM EDTA-Na, 0.1% BSA, pH 7.4) b) 1 μL compound in DMSO c) 50 μL P2Y12 CHO membrane (20 μg/ml) and after 15 min at RT d) 25 μL of 1.61 nM 33P 2MeS-ADP (Perkin Elmer NEN custom synthesis, specific activity ˜2100 Ci/mmol) made in assay buffer.
After 20 min incubation at RT samples were transferred to 96-well microtiter filterplates (Millipore HTS GF/B), pre-wetted for 20 min with 300 μL of stop buffer (10 mM HEPES, 138 mM NaCl pH 7.4) and then filtered through completely with a Millipore plate vacuum. Next, wells were washed four times with 400 μl/well of stop buffer on a plate vacuum. The plate was disassembled and allowed to air dry overnight with the filter side up over night. The filter plates were snapped into adapter plates and 0.1 mL of Microscint 20 Scintillation Fluid (Perkin Elmer #6013621) was added to each well. The top of the filterplate was sealed with plastic plate covers. The sealed filterplate were incubated 2 hours at RT. A Microbeta Scintillation Counter was used to measure counts.
Compounds were diluted as 10 mM DMSO stocks and tested in a four-point, five-fold dilution series run in triplicate beginning at 10 μM, final concentration. Data were analyzed using a four-parameter curve fit with a fixed minimum and maximum experimentally defined as the average positive and negative controls on each plate.

Structure (SMILES) | pIC50
CCOC(=O)N1CCN(C(=O)[C@H](CCC(=O)O)NC(=O)c2cc(OCC(=O)N3CCC[C@H]3C(=O)NCCSC)n(-c3ccccc3)n2)CC1 [Example 3, 4-{(S)-4-Carboxy-2-[(5-{2-[(S)-2-(2-methylsulfanyl-ethylcarbamoyl)-pyrrolidin-1-yl]-2-oxo-ethoxy}-1-phenyl-1H-pyrazole-3-carbonyl)-amino]-butyryl}-piperazine-1-carboxylic acid ethyl ester] | 6.74
CCOC(=O)N1CCN(C(=O)[C@H](CC(=O)O)NC(=O)c2cc(OCC(=O)N3CCC[C@H]3C(=O)NCC(F)F)n(-c3ccccc3)n2)CC1 [Example 57, 4-{(S)-3-Carboxy-2-[(5-{2-[(S)-2-(2,2-difluoro-ethylcarbamoyl)-pyrrolidin-1-yl]-2-oxo-ethoxy}-1-phenyl-1H-pyrazole-3-carbonyl)-amino]-propionyl}-piperazine-1-carboxylic acid ethyl ester] | 6.74
CCOC(=O)N1CCN(C(=O)[C@H](CC(=O)O)NC(=O)c2cc(OCC(=O)N3CCC[C@H]3C(=O)NCCF)n(-c3cccc(F)c3)n2)CC1 [Example 78, 4-((S)-3-Carboxy-2-{[5-[2-((S)-2-(2-fluoroethylcarbamoyl)-pyrrolidin-1-yl)-2-oxo-ethoxy]-1-(3-fluoro-phenyl)-1H-pyrazole-3-carbonyl]-amino}-propionyl)-piperazine-1-carboxylic acid ethyl ester] | 6.72
CCOC(=O)N1CCN(C(=O)[C@H](CC(=O)O)NC(=O)c2cc(OCC(=O)N3CCC[C@H]3C(=O)NCC(F)F)n(-c3cccc(F)c3)n2)CC1 [Example 79, 4-((S)-3-Carboxy-2-{[5-[2-((S)-2-(2,2-difluoroethylcarbamoyl)-pyrrolidin-1-yl)-2-oxo-ethoxy]-1-(3-fluoro-phenyl)-1H-pyrazole-3-carbonyl]-amino}-propionyl)-piperazine-1-carboxylic acid ethyl ester] | 6.84
CCOC(=O)N1CCN(C(=O)[C@H](CCC(=O)O)NC(=O)c2cc(OCC(=O)N3CCC[C@H]3C(=O)NCC(F)(F)F)n(-c3ccc(F)c(F)c3)n2)CC1 [Example 85, 4-((S)-4-Carboxy-2-{[5-[2-((S)-2-(2,2,2-trifluoroethylcarbamoyl)-pyrrolidin-1-yl)-2-oxo-ethoxy]-1-(3,4-difluoro-phenyl)-1H-pyrazole-3-carbonyl]-amino}-butyryl)-piperazine-1-carboxylic acid ethyl ester] | 6.81
CCCCOC(=O)NC1CCN(C(=O)[C@H](CCC(=O)O)NC(=O)c2cc(OCC(=O)N3CCC[C@H]3C(=O)NC3CCC3)n(-c3ccccc3)n2)CC1 [Example 102, (S)-5-(4-Butoxycarbonylamino-piperidin-1-yl)-4-({5-[2-((S)-2-cyclobutylcarbamoyl-pyrrolidin-1-yl)-2-oxo-ethoxy]-1-phenyl-1H-pyrazole-3-carbonyl}-amino)-5-oxo-pentanoic acid] | 7.24
CCOC(=O)N1CCN(C(=O)[C@H](CCC(=O)OC2CCCCC2)NC(=O)c2cc(OCC(=O)N3CCC[C@H]3C(=O)NC3CCC3)n(-c3ccccc3)n2)CC1 [Example 129, 4-[(S)-2-({5-[2-((S)-2-Cyclobutylcarbamoyl-pyrrolidin-1-yl)-2-oxo-ethoxy]-1-phenyl-1H-pyrazole-3-carbonyl}-amino)-4-cyclohexyloxycarbonyl-butyryl]-piperazine-1-carboxylic acid ethyl ester] | 7.08

The remaining lines, values ahead:

pIC50 | Structure (SMILES)
6.90 | CCOC(=O)N1CCN(C(=O)[C@H](CNS(C)(=O)=O)NC(=O)c2cc(OCC(=O)N3CCC[C@H]3C(=O)NC3CCC3)n(-c3ccccc3)n2)CC1 [Example 88, 4-[(S)-2-({5-[2-((S)-2-Cyclobutylcarbamoyl-pyrrolidin-1-yl)-2-oxo-ethoxy]-1-phenyl-1H-pyrazole-3-carbonyl}-amino)-3-methanesulfonylamino-propionyl]-piperazine-1-carboxylic acid ethyl ester]
6.95 | CCOC(=O)N1CCN(C(=O)[C@H](CNC(=O)OC)NC(=O)c2cc(OCC(=O)N3CCC[C@H]3C(=O)NC3CCC3)n(-c3ccccc3)n2)CC1 [Example 89, 4-[(S)-2-({5-[2-((S)-2-Cyclobutylcarbamoyl-pyrrolidin-1-yl)-2-oxo-ethoxy]-1-phenyl-1H-pyrazole-3-carbonyl}-amino)-3-methoxycarbonylamino-propionyl]-piperazine-1-carboxylic acid ethyl ester]
7.46 | CCOC(=O)C(=O)NC[C@H](NC(=O)c1cc(OCC(=O)N2CCC[C@H]2C(=O)NC2CCC2)n(-c2ccccc2)n1)C(=O)N1CCN(C(=O)OCC)CC1 [Example 90, 4-[(S)-2-({5-[2-((S)-2-Cyclobutylcarbamoyl-pyrrolidin-1-yl)-2-oxo-ethoxy]-1-phenyl-1H-pyrazole-3-carbonyl}-amino)-3-(ethoxyoxalyl-amino)-propionyl]-piperazine-1-carboxylic acid ethyl ester]
6.89 | CCOC(=O)N1CCN(C(=O)[C@H](CNC(=O)C2CC2)NC(=O)c2cc(OCC(=O)N3CCC[C@H]3C(=O)NC3CCC3)n(-c3ccccc3)n2)CC1 [Example 91, 4-[(S)-2-({5-[2-((S)-2-Cyclobutylcarbamoyl-pyrrolidin-1-yl)-2-oxo-ethoxy]-1-phenyl-1H-pyrazole-3-carbonyl}-amino)-3-(cyclopropanecarbonyl-amino)-propionyl]-piperazine-1-carboxylic acid ethyl ester]
7.23 | CCOC(=O)N1CCN(C(=O)[C@H](CCNS(C)(=O)=O)NC(=O)c2cc(OCC(=O)N3CCC[C@H]3C(=O)NC3CCC3)n(-c3ccccc3)n2)CC1 [Example 94, 4-[(S)-2-({5-[2-((S)-2-Cyclobutylcarbamoyl-pyrrolidin-1-yl)-2-oxo-ethoxy]-1-phenyl-1H-pyrazole-3-carbonyl}-amino)-4-methanesulfonylamino-butyryl]-piperazine-1-carboxylic acid ethyl ester]
6.80 | CCOC(=O)N1CCN(C(=O)[C@H](CCNC(=O)C(C)(C)C)NC(=O)c2cc(OCC(=O)N3CCC[C@H]3C(=O)NC3CCC3)n(-c3ccccc3)n2)CC1 [Example 99, 4-[(S)-2-({5-[2-((S)-2-Cyclobutylcarbamoyl-pyrrolidin-1-yl)-2-oxo-ethoxy]-1-phenyl-1H-pyrazole-3-carbonyl}-amino)-4-(2,2-dimethyl-propionylamino)-butyryl]-piperazine-1-carboxylic acid ethyl ester]
6.71 | CCOC(=O)N1CCN(C(=O)[C@H](CCNC(=O)C(C)C)NC(=O)c2cc(OCC(=O)N3CCC[C@H]3C(=O)NC3CCC3)n(-c3ccccc3)n2)CC1 [Example 100, 4-[(S)-2-({5-[2-((S)-2-Cyclobutylcarbamoyl-pyrrolidin-1-yl)-2-oxo-ethoxy]-1-phenyl-1H-pyrazole-3-carbonyl}-amino)-4-isobutyrylamino-butyryl]-piperazine-1-carboxylic acid ethyl ester]
